Experimental data from patent US9701662B2, “Herbicidal compounds” (Syngenta Participations AG, priority 2014, dated 2017).

Tests used:
Assay type in all cases: in vivo
[1] = tested on: Ipomoea hederacea (IPOHE); experiment: Post-emergence glasshouse herbicide test; conditions: post-emergence (sprayed after 8 days cultivation), 1000 g/h, evaluated after 13 days, five point scale
Protocol: (§1) Seeds of a variety of test species are sown in standard soil in pots (Lolium perenne (LOLPE), Solanum nigrum (SOLNI), Amaranthus retoflexus (AMARE), Setaria faberi (SETFA), Echinochloa crus-galli (ECHCG), Ipomoea hederacea (IPOHE)). After cultivation for one day (pre-emergence) or after 8 days cultivation (post-emergence) under controlled conditions in a glasshouse (at 24/16° C., day/night; 14 hours light; 65% humidity), the plants are sprayed with an aqueous spray solution derived from the formulation of the technical active ingredient in acetone/water (50:50) solution containing 0.5% Tween 20 (polyoxyethelyene sorbitan monolaurate, CAS RN 9005-64-5). Compounds are applied at 1000 g/h. The test plants are then grown in a glasshouse under controlled conditions in a glasshouse (at 24/16° C., day/night; 14 hours light; 65% humidity) and watered twice daily. After 13 days for pre and post-emergence, the test is evaluated for the percentage damage caused to the plant. The biological activities are shown in the following table on a five point scale (5=80-100%; 4=60-79%; 3=40-59%; 2=20-39%; 1=0-19%).

[2] = tested on: Solanum nigrum (SOLNI); experiment: Post-emergence glasshouse herbicide test; conditions: post-emergence (sprayed after 8 days cultivation), 1000 g/h, evaluated after 13 days, five point scale
Protocol: as §1

[3] = tested on: Amaranthus retoflexus (AMARE); experiment: Post-emergence glasshouse herbicide test; conditions: post-emergence (sprayed after 8 days cultivation), 1000 g/h, evaluated after 13 days, five point scale
Protocol: as §1

[4] = tested on: Setaria faberi (SETFA); experiment: Post-emergence glasshouse herbicide test; conditions: post-emergence (sprayed after 8 days cultivation), 1000 g/h, evaluated after 13 days, five point scale
Protocol: as §1

[5] = tested on: Lolium perenne (LOLPE); experiment: Post-emergence glasshouse herbicide test; conditions: post-emergence (sprayed after 8 days cultivation), 1000 g/h, evaluated after 13 days, five point scale
Protocol: as §1

[6] = tested on: Echinochloa crus-galli (ECHCG); experiment: Post-emergence glasshouse herbicide test; conditions: post-emergence (sprayed after 8 days cultivation), 1000 g/h, evaluated after 13 days, five point scale
Protocol: as §1

[7] = tested on: Ipomoea hederacea (IPOHE); experiment: Pre-emergence glasshouse herbicide test; conditions: pre-emergence (sprayed after one day cultivation), 1000 g/h, evaluated after 13 days, five point scale
Protocol: as §1

[8] = tested on: Solanum nigrum (SOLNI); experiment: Pre-emergence glasshouse herbicide test; conditions: pre-emergence (sprayed after one day cultivation), 1000 g/h, evaluated after 13 days, five point scale
Protocol: as §1

[9] = tested on: Amaranthus retoflexus (AMARE); experiment: Pre-emergence glasshouse herbicide test; conditions: pre-emergence (sprayed after one day cultivation), 1000 g/h, evaluated after 13 days, five point scale
Protocol: as §1

[10] = tested on: Setaria faberi (SETFA); experiment: Pre-emergence glasshouse herbicide test; conditions: pre-emergence (sprayed after one day cultivation), 1000 g/h, evaluated after 13 days, five point scale
Protocol: as §1

[11] = tested on: Lolium perenne (LOLPE); experiment: Pre-emergence glasshouse herbicide test; conditions: pre-emergence (sprayed after one day cultivation), 1000 g/h, evaluated after 13 days, five point scale
Protocol: as §1

[12] = tested on: Echinochloa crus-galli (ECHCG); experiment: Pre-emergence glasshouse herbicide test; conditions: pre-emergence (sprayed after one day cultivation), 1000 g/h, evaluated after 13 days, five point scale
Protocol: as §1

| SMILES | percentage damage caused to the plant, IPOHE, POST Application [1] | percentage damage caused to the plant, SOLNI, POST Application [2] | percentage damage caused to the plant, AMARE, POST Application [3] | percentage damage caused to the plant, SETFA, POST Application [4] | percentage damage caused to the plant, LOLPE, POST Application [5] | percentage damage caused to the plant, ECHCG, POST Application [6] | percentage damage caused to the plant, IPOHE, PRE Application [7] | percentage damage caused to the plant, SOLNI, PRE Application [8] | percentage damage caused to the plant, AMARE, PRE Application [9] | percentage damage caused to the plant, SETFA, PRE Application [10] | percentage damage caused to the plant, LOLPE, PRE Application [11] | percentage damage caused to the plant, ECHCG, PRE Application [12] |
| --- | --- | --- | --- | --- | --- | --- | --- | --- | --- | --- | --- | --- |
| COc1ccc(-c2c(Cl)c(C(=O)Nc3nnnn3C)nn(C)c2=O)cc1OC [Compound 1.017] | 5 (5=80-100%) | 5 (5=80-100%) | 5 (5=80-100%) | 5 (5=80-100%) | 5 (5=80-100%) | 5 (5=80-100%) | 5 (5=80-100%) | 5 (5=80-100%) | 5 (5=80-100%) | 5 (5=80-100%) | 5 (5=80-100%) | 5 (5=80-100%) |
| Cn1nnnc1NC(=O)c1nn(C)c(=O)c(-c2ccc(Cl)c(Cl)c2)c1Cl [Compound 1.019] | 4 (4=60-79%) | 5 (5=80-100%) | 3 (3=40-59%) | 5 (5=80-100%) | 5 (5=80-100%) | 5 (5=80-100%) | 3 (3=40-59%) | 5 (5=80-100%) | 5 (5=80-100%) | 5 (5=80-100%) | 5 (5=80-100%) | 5 (5=80-100%) |
| Cc1ccc(C)c(-c2c(Cl)c(C(=O)Nc3nnnn3C)nn(C)c2=O)c1 [Compound 1.020] | 5 (5=80-100%) | 5 (5=80-100%) | 5 (5=80-100%) | 5 (5=80-100%) | 5 (5=80-100%) | 5 (5=80-100%) | 5 (5=80-100%) | 5 (5=80-100%) | 5 (5=80-100%) | 5 (5=80-100%) | 5 (5=80-100%) | 5 (5=80-100%) |
| Cn1nnnc1NC(=O)c1nn(C)c(=O)c(-c2ccc(C(F)(F)F)cc2)c1Cl [Compound 1.023] | 2 (2=20-39%) | 5 (5=80-100%) | 2 (2=20-39%) | 5 (5=80-100%) | 5 (5=80-100%) | 5 (5=80-100%) | 2 (2=20-39%) | 5 (5=80-100%) | 4 (4=60-79%) | 5 (5=80-100%) | 5 (5=80-100%) | 5 (5=80-100%) |
| Cn1nnnc1NC(=O)c1nn(C)c(=O)c(-c2cccc(C(F)(F)F)c2)c1Cl [Compound 1.030] | 4 (4=60-79%) | 5 (5=80-100%) | 5 (5=80-100%) | 5 (5=80-100%) | 5 (5=80-100%) | 5 (5=80-100%) | 2 (2=20-39%) | 5 (5=80-100%) | 5 (5=80-100%) | 5 (5=80-100%) | 5 (5=80-100%) | 5 (5=80-100%) |
